Earlier results as cited in patent US20020006908A1, “ANTICONVULSANT DERIVATIVES USEFUL IN TREATING SCHIZOPHRENIA” (priority 1998, published 2002).

Legend:
human epilepsy = details: adjunctive therapy or monotherapy, clinical trials of human epilepsy
[1] = tested on: rodent models of epilepsy; details: several rodent models of epilepsy
[2] = tested on: animal model of kindled epilepsy

effect on glutamate receptor activity (glutamate receptor): reduced glutamate receptor activity
SMILES: CC1(C)O[C@@H]2[C@@H](CO[C@@]3(COS(N)(=O)=O)OC(C)(C)O[C@@H]23)O1 [topiramate, 2,3:4,5-bis-O-(1-methylethylidene)-β-D-fructopyranose sulfamate]
efficacy in treating simple and complex partial seizures and secondarily generalized seizures (human epilepsy): effective
seizure block [1]: effectively block seizures
seizure block [2]: effectively block seizures
effect on brain GABA activity (brain GABA activity): enhancement of brain GABA activity
